Measured values from PMC3522777 (Nature chemical biology, 2012).

Tests used:
[1] = target: T1, dihydroceramide desaturase-1 (DES1) (Gallus gallus, UniProt Q5F3C1); format: biochemical
T1 sequence (Q5F3C1 1-323): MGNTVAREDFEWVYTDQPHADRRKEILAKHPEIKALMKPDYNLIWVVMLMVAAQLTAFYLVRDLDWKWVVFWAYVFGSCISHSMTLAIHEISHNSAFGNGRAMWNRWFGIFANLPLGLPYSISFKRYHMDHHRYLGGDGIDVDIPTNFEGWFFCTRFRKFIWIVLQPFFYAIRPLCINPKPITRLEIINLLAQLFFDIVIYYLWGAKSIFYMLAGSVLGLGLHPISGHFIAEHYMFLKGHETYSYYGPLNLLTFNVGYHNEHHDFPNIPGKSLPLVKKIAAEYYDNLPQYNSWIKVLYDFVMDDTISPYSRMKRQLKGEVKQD

DES1 = DES1 (Homo sapiens, UniProt O15121); test: retinol isomerase assay in homogenates of transfected […] cells, HPLC; format: cell-based
Sequence of DES1 (O15121 2-323): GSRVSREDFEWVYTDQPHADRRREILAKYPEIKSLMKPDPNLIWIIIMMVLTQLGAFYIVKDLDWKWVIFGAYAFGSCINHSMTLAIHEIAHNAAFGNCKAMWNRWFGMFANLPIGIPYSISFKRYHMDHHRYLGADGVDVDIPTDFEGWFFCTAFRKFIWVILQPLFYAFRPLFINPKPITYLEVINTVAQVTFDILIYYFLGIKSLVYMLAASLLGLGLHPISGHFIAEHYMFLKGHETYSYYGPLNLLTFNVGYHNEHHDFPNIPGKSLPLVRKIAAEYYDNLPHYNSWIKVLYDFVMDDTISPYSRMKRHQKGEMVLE

[2] = target: T1, dihydroceramide desaturase-1 (DES1); test: retinol isomerase assay with purified GST-DES1, HPLC of products; format: biochemical

Structure (SMILES) | Ki [1] [µM] | retinol isomerase assay in homogenates of transfected 293T cells, HPLC (DES1) | retinol isomerase assay with purified GST-DES1, HPLC of products [2]
CC1=C(/C=C/C(C)=C/C=C/C(C)=C/C(=O)Nc2ccc(O)cc2)C(C)(C)CCC1 [4-HPR, fenretinide] | 8.5 |  | 
CC1=C(/C=C/C(C)=C/C=C/C(C)=C/CO)C(C)(C)CCC1 [all-trans-ROL, all-trans-retinol] |  | The rate of 11-cis-ROL synthesis was dramatically higher for DES1 versus the other membrane desaturases | Purified GST-DES1 exhibited dramatically higher isomerase-2 activities
